Measured values from patent US20060142188A1 (Memory Pharmaceuticals Corporation, priority 2003, published 2006).

Experiments:
[1] = target: T1, mutant (L270T) alpha7 nAchR (Macaca mulatta, UniProt Q866A2, L270T); experiment: FLIPR functional measurement of mutant mkα7/L270T stably expressed in QM7 cells; assay type: cell-based, rhesus monkey; settings: Fluo-3AM, FIG. 7
T1 construct: expressed in transfected cells
Method: (§1) QM 7 cells were routinely grown as monolayers in minimum essential medium 199 supplemented with 5% FBS, 2% tryptose phosphate broth, 1% DMSO, penicillin (100 IU/ml) and were passaged every 3-4 days. Transfections with either rhesus monkey wild type alpha7 nAchR (mkα7) or mutant alpha7 nAchR (mkα7/L270T) were performed using Lipofectamine PLUS Kit (Invitrogen). Twenty-four hours after the transfection, cells were split for stable selection with 1 mg/ml G418. Single colonies were isolated and propagated. The expression of mkα7/L270T was identified with FLIPR for fluorescence changes after addition of agonist. The expression of mkα7 was identified by radioligand binding to [^3H]-methyllycaconitine (Virginio, C., A., Giacometti, A. et al. (2002). Pharmacological properties of rat alpha7 nicotinic receptors expressed in native and recombinant cell systems, Eur, J. Pharmacol. 445(3), 153-161.)
Cells were seeded into 96 well black wall and clear-bottom plates (Costar) coated with poly-D-lysine at a density of 20,000 cells per well and cultured overnight. […] The fluorescence was monitored (λex=488 […]) for three minutes immediately after the compound addition. The relative fluorescence unit (RFU) was measured as peak fluorescence intensity minus basal fluorescence intensity. […]

[2] = target: T2, rhesus monkey wild-type alpha-7 nACh receptor (Macaca mulatta, UniProt Q866A2); experiment: Patch clamp net charge analysis of wild-type mkα7 in stably transfected QM7 cells; assay type: cell-based; settings: wild-type alpha-7 clone #1, dose response curve, FIG. 8, normalized to 1 mM ACh
T2 construct: expressed in transfected cells
Method: as §1
Stably transfected QM7 cells grown on cover slips and expressing wild-type rhesus monkey alpha7 receptors were incubated at 37° C. in the presence of 5% CO2. Individual cover slips were removed for function analysis and placed in a recording buffer consisting of 140 mM NaCl, 5 mM KCl, 10 mM HEPES, 2 mM CaCl2, 1 mM MgCl2, 100 mM glucose titrated to pH 7.3 and perfused at 2-3 ml/min. […]

| EC50 compared with nicotine [1] | EC50 [2] | SMILES |
| --- | --- | --- |
| better or comparable to that of nicotine | – | COc1ccc(/C=C2\CCCN=C2c2cccnc2)c(OC)c1 [GTS-21] |
| – | 38 µM | CC(=O)OCC[N+](C)(C)C [acetylcholine] |
